Assays:
[1] = system: IL-10 in serum of mice administered with LPS; assay: Serum IL-10 in LPS-administered mice, ANO i.v. (Experiment 7); assay type: in vivo, BALB/c mice; settings: LPS 18 mg/kg i.p., serum two hours after LPS
Protocol: More specifically, 18 BALB/c female mice, 9-week-old, commercialized by Japan Charles River, Tokyo, Japan, were randomly divided into three groups, six heads each. An LPS specimen derived from E. coli (055:B5), commercialized by Sigma-Aldrich Corporation, St. Louis, Mo. USA, was dissolved in physiological saline and intraperitoneally administered to all the 6 mice in respective three groups at a dose of 18 mg/kg body weight of LPS (Experiment groups 1 to 3). […] To the six mice of the remaining one group was intravenously administered PBS in a liquid volume of 0.2 mL/head simultaneously with the administration of LPS (Experiment group 1).
For the mice in each group, they were collected blood at two hours after the LPS administration, followed by assaying the level of TNF-α, IL-6, IL-10, and IL-12 in each serum and averaging the data for each group. For the assay of the level of TNF-α, the same ELISA as in Experiment 2 was used and for the assay of the level of IL-6, the same ELISA as in Experiment 3 was used. […]

[2] = system: NHDF cells; assay: Cell survival rate of NHDF cells after hydrogen peroxide oxidant stress (Experiment 18); assay type: cell-based, human
Protocol: To the wells, which had not been treated with hydrogen peroxide, was added 100 μL/well of Hanks' solution. […] Thereafter, the supernatant in each well was removed by sucking, and “CELL COUNTING KIT-8”, a product name of a reagent solution for counting viable cells, commercialized by Dojindo Molecular Technologies, Inc., Kumamoto, Japan, which had been diluted with D-MEM medium supplemented with 10% FCS by 20-times, was added to the wells in an amount of 100 μL/well, followed by incubating the cells in a 5% v/v CO2 incubator at 37° C. for two hours. Finally, the microplates were measured for absorbance at a wavelength of 450 nm on a plate reader. For each well, a relative absorption value was determined when the absorbance of a well of NHDF cells, which had been cultured by the addition of only medium, was regarded as 100, and it is expressed as a cell survival rate (%) in Table 21.

[3] = system: skin of volunteers irradiated with ultraviolet rays; assay: Volunteer test of creams: pigmentation (visual score, melanin index) after ultraviolet rays; assay type: in vivo, human; settings: cream thrice a day for 28 days
Protocol: Melanin index was measured on “CM-700d”, a spectrophotometer commercialized by Konica Minolta Holdings, Inc., Tokyo, Japan.
In was confirmed that there were no spots and wounds in the inside of the left upper arm in each volunteer. On the day of initiating the test, four sites in the test part of each volunteer were irradiated with 1.5-times of the minimum erythemogenic dose of ultraviolet rays (UVB). The area of the irradiated site was in the range of 1×1 cm applied with each test sample. […]
From the day of initiating the irradiation of ultraviolet rays until seven days after the initiation, the test parts were visually observed and photographed by a digital camera every day, and the day, on which the erythema in the part irradiated with ultraviolet rays become unobserved, was confirmed and the days until the unobserved day for each creams were averaged and shown in Table 26. At 24 hours after the irradiation of ultraviolet rays, the degree of erythema in the part applied with each cream was scored based on the three grades of “strong (2)”, “no difference (0)”, and “weak (−2)” compared to the part applied with Cream 3, summed up the scores for each cream, and averaged. […] On 28 days after initiating the irradiation of ultraviolet rays, visual judgement on the part irradiated with ultraviolet rays and the melanin index were measured to confirm the degree of pigmentation. […]

[4] = D-MEM medium, absence of human serum, 100 μM, 37° C., 24 hours

Structure (SMILES): Nc1c2ncn([C@@H]3O[C@H](CO)[C@@H](O)[C@H]3O)c2nc[n+]1[O-] [ANO, adenosine N1-oxide]
- IL-10 Concentration ([1]; ANO 68 mg/kg i.v.): 14.1 ng/mL
- IL-10 Concentration ([1]; ANO 135 mg/kg i.v.): 19.3 ng/mL
- Cell survival rate ([2]; addition of hydrogen peroxide: No, 3.12 μM): 100%
- Cell survival rate ([2]; addition of hydrogen peroxide: No, 6.25 μM): 100%
- Cell survival rate ([2]; addition of hydrogen peroxide: No, 12.5 μM): 100%
- Cell survival rate ([2]; addition of hydrogen peroxide: No, 25.0 μM): 100%
- Cell survival rate ([2]; addition of hydrogen peroxide: Yes, 3.1 μM): 35%
- Cell survival rate ([2]; addition of hydrogen peroxide: Yes, 6.3 μM): 81%
- Cell survival rate ([2]; addition of hydrogen peroxide: Yes, 12.5 μM): 83%
- Cell survival rate ([2]; addition of hydrogen peroxide: Yes, 25.0 μM): 89%
- influence on the cell survival rate without hydrogen peroxide ([2]; concentrations used in this experiment (Experiment groups 7 to 10)): No influence
- Cell survival rate ([2]; hydrogen peroxide 200 μM, then ANO 25 μM for 24 hours, medium only = 100): 89%
- safeness when applied to the skin (red flare, eczema) [3]: induced no red flare, eczema, etc.
- residual percentage [4]: 100%
